This passage reports IC50 results from patent publication US7829567B2, “Imino-indeno[1,2-c] quinoline derivatives, their preparation processes, and pharmaceutical compositions comprising the same” (Kaohsiung Medical University, priority 2007, dated 2010).

Where two headings read alike, the source gives them in different places.

What all share (type): cell-based
Assay [1] concerns human stomach adenocarcinoma (AGS). Put plainly: In vitro anticancer assay (MTT), AGS. As to conditions: AGS cells, 48 hrs, mean ± spread, read-out: Anti-proliferative evaluation IC50, AGS. The protocol:
(§1) The resultant tetrazolium salt was then dissolved by the addition of dimethyl sulfoxide. Color was measured spectrophotometrically in a microtiter plate reader at 570 nm and used as a relative measure of viable cell number. The number of viable cells after treatment was compared to solvent and untreated control cells and used to determine the percent of control growth as (Abtreated/Abcontrol)×100, where Ab represents the mean absorbance (n=3). […] D. Heo et al. […] (+)-camptothecin (CPT) and doxorubicin hydrochloride (Dox) were used for comparison with the compounds according to this invention.

Assay [2] has as its system human cervical epithelioid carcinoma (HeLa). Put plainly: In vitro anticancer assay (MTT), HeLa. As to conditions: HeLa cells, 48 hrs, mean ± spread, read-out: Anti-proliferative evaluation IC50, HeLa. Here is the method: as §1
Assay [3] deals with esophageal carcinoma (CE81T). In words: In vitro anticancer assay (MTT), CE81T. The conditions noted are these: CE81T cells, 48 hrs, mean ± spread, read-out: Anti-proliferative evaluation IC50, CE81T. Here is the method: as §1
Assay [4] relates to hepatocellular carcinoma (SKHep1). Put plainly: In vitro anticancer assay (MTT), SKHep1. As to conditions: 48 hrs, mean ± spread, read-out: Anti-proliferative evaluation IC50, SKHep1. The protocol: as §1
Assay [5] deals with human renal clear cell carcinoma. In words: In vitro anticancer assay (MTT), RCC 768-O. The conditions noted are these: RCC 768-O cells, 48 hrs, mean ± spread, read-out: Anti-proliferative evaluation IC50, RCC 768-O. The protocol:
as §1

Assay [6] relates to oral squamous cell carcinoma (SAS). In words: In vitro anticancer assay (MTT), SAS. The conditions noted are these: SAS cells, 48 hrs, mean ± spread, read-out: Anti-proliferative evaluation IC50, SAS. The protocol: as §1
The mark [7] stands for this setting: Homo sapiens, SK-HEP1, SKHep1 cells.

By IC50 is commonly meant the point on the concentration scale where inhibition reaches its midpoint. For `CNCC(O)CN1CCN(c2nc3ccccc3c3c2-c2ccc(OC)cc2C3=O)CC1` (stereo not drawn) [Compound 5lll, 6-{4-[2-Hydroxy-3-(methylamino)propyl]piperazin-1-yl}-9-methoxy-11H-indeno[1,2-c]quinolin-11-one], the IC50 in assay [1] (Homo sapiens) was determined as 9.6 ± 3.8 µM; in assay [2] (Homo sapiens), 4.6 ± 1 µM; in assay [3] it was 0.9 ± 0.3 µM; in assay [4] (setting [7]), 3.4 ± 1.2 µM; in assay [5] (Homo sapiens), 6.4 ± 0.2 µM; in assay [6] it was 7.4 ± 0.7 µM.
Take `COc1ccc2c(c1)C(=O)c1c-2c(N2CCN(C(=O)CNCCN)CC2)nc2ccccc12` [Compound 5mm]: the IC50 is 11.2 ± 1.5 µM in assay [1]; 8.7 ± 1.8 µM in assay [2]; > 30 µM in assay [3]; 14.9 ± 3.6 µM in assay [4] (SKHep1 cells); 10.5 ± 1 µM in assay [5]; > 30 µM in assay [6].
Take `COc1ccc2c(c1)C(=O)c1c-2c(N2CCN(CC(O)CN(C)C)CC2)nc2ccccc12` (stereo not drawn) [Compound 5mmm]: the IC50 in assay [1] came to 7.9 ± 3.8 µM; in assay [2] it was 2.5 ± 0.7 µM; in assay [3] it was 4.8 ± 4 µM; in assay [4] (SKHep1 cells) it was 2.2 ± 0.8 µM; in assay [5], 6.8 ± 0.1 µM; in assay [6], 6.9 ± 0.5 µM.
Turning to `COc1ccc2c(c1)C(=O)c1c-2c(N2CCN(C(=O)CNCCO)CC2)nc2ccccc12` [Compound 5nn], the IC50 in assay [1] was determined as 6.5 ± 0.6 µM; in assay [2], 4.7 ± 2.3 µM; in assay [3] it was 9.2 ± 0.8 µM; in assay [4] (SKHep1 cells), 6.6 ± 0.9 µM; in assay [5], 6.7 ± 0.5 µM; in assay [6] it was 11.3 ± 0.3 µM.
Consider `COc1ccc2c(c1)C(=O)c1c-2c(N2CCN(C(=O)CNCCN(C)C)CC2)nc2ccccc12` [Compound 5oo], for which the IC50 in assay [1] was 14.1 ± 2.3 µM; in assay [2] it was 8.2 ± 2.2 µM; in assay [3], > 30 µM; in assay [4] (SKHep1 cells) it was 16 ± 3.8 µM; in assay [5], 9.4 ± 0.6 µM; in assay [6], 19.5 ± 3.2 µM.
Turning to `COc1ccc2c(c1)C(=O)c1c-2c(N2CCN(C(=O)CNCCCN(C)C)CC2)nc2ccccc12` [Compound 5pp], the IC50 in assay [1] is 5.6 ± 2.2 µM; in assay [2], 10.8 ± 3 µM; in assay [3], > 30 µM; in assay [4] (SKHep1 cells), 13.1 ± 2.7 µM; in assay [5], 10 ± 2.1 µM; in assay [6] it was > 30 µM.
Regarding `COc1ccc(Nc2nc3ccccc3c3c2-c2ccc(OC)cc2C3=O)c(OC)c1` [Compound 5q], the IC50 in assay [1] was > 30 µM; in assay [2], > 30 µM; in assay [3] it was 22.7 ± 1.5 µM; in assay [4] (SKHep1 cells), > 30 µM; in assay [5], > 30 µM; in assay [6], > 30 µM.
For the molecule `COc1ccc2c(c1)C(=O)c1c-2c(N2CCN(C(=O)CNCCNCCN)CC2)nc2ccccc12` [Compound 5qq], the IC50 in assay [1] is 15.5 ± 1.5 µM; in assay [2] it was > 30 µM; in assay [3], > 30 µM; in assay [4] (SKHep1 cells) it was > 30 µM; in assay [5], > 30 µM; in assay [6], > 30 µM.
Take `COc1ccc2c(c1)C(=O)c1c-2c(N2CCN(C(=O)CNCCNCCO)CC2)nc2ccccc12` [Compound 5rr]: the IC50 in assay [1] came to 3.5 ± 1.1 µM; in assay [2], 6.6 ± 1.3 µM; in assay [3], 6.6 ± 1.9 µM; in assay [4] (SKHep1 cells), 11.9 ± 2.5 µM; in assay [5], 7.6 ± 0.1 µM; in assay [6], 8.6 ± 0.9 µM.
For the molecule `COc1ccc2c(c1)C(=O)c1c-2c(N2CCN(C(=O)CNCCCN(C)CCCN)CC2)nc2ccccc12` [Compound 5ss], the IC50 in assay [1] is 12.5 ± 5.2 µM; in assay [2], > 30 µM; in assay [3], > 30 µM; in assay [4] (SKHep1 cells), 21.5 ± 7 µM; in assay [5], 10.8 ± 1.1 µM; in assay [6], > 30 µM.
`COc1ccc2c(c1)C(=O)c1c-2c(N2CCN(C(=O)CN3CCNCC3)CC2)nc2ccccc12` [Compound 5tt]: the IC50 in assay [1] is 3.4 ± 0.4 µM; in assay [2], > 30 µM; in assay [3], 7.2 ± 1.8 µM; in assay [4] (SKHep1 cells) it was 2.2 ± 1.3 µM; in assay [5], 4 ± 1.5 µM; in assay [6], 7.4 ± 1.1 µM.
`COc1ccc2c(c1)C(=O)c1c-2c(N2CCN(C(=O)CN3CCOCC3)CC2)nc2ccccc12` [Compound 5uu]: the IC50 in assay [1] was 21.4 ± 0.2 µM; in assay [2] it was 18 ± 8.1 µM; in assay [3] it was > 30 µM; in assay [4] (SKHep1 cells), 19.9 ± 10 µM; in assay [5], > 30 µM; in assay [6], > 30 µM.
`COc1ccc2c(c1)C(=O)c1c-2c(N2CCC(N)C2)nc2ccccc12` (stereo not drawn) [Compound 5v]: the IC50 in assay [1] is > 30 µM; in assay [2], > 30 µM; in assay [3], > 30 µM; in assay [4] (SKHep1 cells) it was 26.9 ± 19.5 µM; in assay [5] it was > 30 µM; in assay [6], > 30 µM.
In the case of `COc1ccc2c(c1)C(=O)c1c-2c(N2CCN(C(=O)CNCCN3CCNCC3)CC2)nc2ccccc12` [Compound 5vv], the IC50 is 7.3 ± 0.1 µM in assay [1]; 5.4 ± 2 µM in assay [2]; 8.4 ± 2 µM in assay [3]; 6.4 ± 0.6 µM in assay [4] (SKHep1 cells); 5.6 ± 0.9 µM in assay [5]; 8.9 ± 0.1 µM in assay [6].
`COc1ccc2c(c1)C(=O)c1c-2c(N2CCC(N)CC2)nc2ccccc12` [Compound 5w]: the IC50 worked out at 7.4 ± 0.6 µM in assay [1]; 1.1 ± 0.3 µM in assay [2]; 1.4 ± 0.7 µM in assay [3]; 2.6 ± 0.9 µM in assay [4] (SKHep1 cells); 5.3 ± 1 µM in assay [5]; 8.4 ± 2.6 µM in assay [6].
`COc1ccc2c(c1)C(=O)c1c-2c(N2CCN(C(=O)CCO)CC2)nc2ccccc12` [Compound 5ww]: the IC50 was 9.5 ± 0.3 µM in assay [1]; 10.6 ± 1.6 µM in assay [2]; > 30 µM in assay [3]; 21.9 ± 6.4 µM in assay [4] (SKHep1 cells); 18.5 ± 2.1 µM in assay [5]; > 30 µM in assay [6].
`CNCCC(=O)N1CCN(c2nc3ccccc3c3c2-c2ccc(OC)cc2C3=O)CC1` [Compound 5xx]: the IC50 stood at 8.1 ± 1.1 µM in assay [1]; 1.9 ± 0.8 µM in assay [2]; 3.8 ± 0.6 µM in assay [3]; 9.1 ± 4.8 µM in assay [4] (SKHep1 cells); 6 ± 1.4 µM in assay [5]; 6.9 ± 0.7 µM in assay [6].
Consider `COc1ccc2c(c1)C(=O)c1c-2c(N2CCNC(C)C2)nc2ccccc12` (stereo not drawn) [Compound 5y], for which the 50% inhibitory concentration (IC50) came out at 7.9 ± 1.2 µM in assay [1]; 3.4 ± 1 µM in assay [2]; 3.3 ± 2.2 µM in assay [3]; 2.9 ± 0.5 µM in assay [4] (SKHep1 cells); 13.6 ± 5.5 µM in assay [5]; 13.4 ± 2.6 µM in assay [6].
As to `COc1ccc2c(c1)C(=O)c1c-2c(N2CCN(C(=O)CCN(C)C)CC2)nc2ccccc12` [Compound 5yy], the IC50 is 8.1 ± 1.1 µM in assay [1]; 11.7 ± 1.7 µM in assay [2]; > 30 µM in assay [3]; 16.6 ± 2 µM in assay [4] (SKHep1 cells); 11.5 ± 1.8 µM in assay [5]; 17 ± 2.9 µM in assay [6].
Take `COc1ccc2c(c1)C(=O)c1c-2c(N2CCCNCC2)nc2ccccc12` [Compound 5z]: the IC50 in assay [1] is 7.1 ± 1.1 µM; in assay [2], 3 ± 1.3 µM; in assay [3] it was 4.9 ± 1.3 µM; in assay [4] (SKHep1 cells), 6.2 ± 0.7 µM; in assay [5] it was 10.2 ± 6.5 µM; in assay [6], 10.2 ± 2.5 µM.
On to `COc1ccc2c(c1)C(=O)c1c-2c(N2CCN(C(=O)CCNCCN)CC2)nc2ccccc12` [Compound 5zz], for which the IC50 in assay [1] was 9 ± 2 µM; in assay [2], 11.4 ± 0.4 µM; in assay [3], > 30 µM; in assay [4] (SKHep1 cells), 19 ± 3.2 µM; in assay [5] it was > 30 µM; in assay [6] it was > 30 µM.
As to `COc1ccc2c(c1)C(=NO)c1c-2c(OC)nc2ccccc12` [Compound 6e], the IC50 was 6.8 ± 1.4 µM in assay [1]; 8.4 ± 1.2 µM in assay [2]; > 30 µM in assay [3]; 8.7 ± 2.1 µM in assay [4] (SKHep1 cells); > 30 µM in assay [5]; 9.5 ± 2.1 µM in assay [6].
As for `ON=C1c2ccccc2-c2c(N3CCNCC3)nc3ccccc3c21` [Compound 6i], the IC50 in assay [1] is 7.6 ± 1.4 µM; in assay [2] it was 5.1 ± 0.6 µM; in assay [3] it was 3.5 ± 2.7 µM; in assay [4] (SKHep1 cells), 4.6 ± 1.1 µM; in assay [5], 6.3 ± 1.3 µM; in assay [6] it was 7.3 ± 1.5 µM.
Consider `CON=C1c2ccccc2-c2c(N3CCNCC3)nc3ccccc3c21` [Compound 6j, 6-(Piperazin-1-yl)-11H-indeno[1,2-c]quinolin-11-one O-methyl oxime], for which the IC50 was found to be 8.1 ± 2.1 µM in assay [1] (Homo sapiens); 6.2 ± 0.6 µM in assay [2] (Homo sapiens); 0.4 µM in assay [3]; 6.1 ± 0.8 µM in assay [4] (setting [7]); 7.7 ± 0.5 µM in assay [5] (Homo sapiens); 7.7 ± 1 µM in assay [6].
As to `ON=C1c2cc(F)ccc2-c2c(N3CCNCC3)nc3ccccc3c21` [Compound 6k], the IC50 in assay [1] was > 30 µM; in assay [2], 1.7 ± 0.2 µM; in assay [3], 3.3 ± 1.8 µM; in assay [4] (SKHep1 cells), 0.9 ± 0.3 µM; in assay [5], 2.3 ± 0.6 µM; in assay [6] it was 4.4 ± 1.4 µM.
Regarding `CON=C1c2cc(F)ccc2-c2c(N3CCNCC3)nc3ccccc3c21` [Compound 6l], the IC50 in assay [1] was determined as 7.6 ± 3.4 µM; in assay [2], 4.9 ± 0.6 µM; in assay [3], 3.4 ± 0.3 µM; in assay [4] (SKHep1 cells), 5.9 ± 1.1 µM; in assay [5] it was 7 ± 0.7 µM; in assay [6], 7.9 ± 0.3 µM.
